11 compounds from ChEMBL document CHEMBL4130612, “Anti-Inflammatory Prenylated Phenylpropenols and Coumarin Derivatives from Murraya exotica” (J Nat Prod, 2018) can be followed below.

The test system of the test is BV-2. Put plainly: Antiinflammatory activity in mouse BV2 cells assessed as inhibition of LPS-induced nitric oxide production after 24 hrs by griess assay. Format: functional, cell-based. The note with it: BV-2, 24 h.
As for `C=C(C)C(O)Cc1c(OC)cc(OC)c2ccc(=O)oc12` (stereo unspecified), the half-inhibitory concentration (IC50) is 15.5 µM.

As for `OC/C=C/c1ccc(O)c(/C=C/[C@@]23CCC(CO)=C[C@H]2c2cc(/C=C/CO)ccc2O[C@H]3O)c1`, the IC50 is more than 50 µM.

Turning to `C=C(C)/C=C/c1c(OC)ccc2ccc(=O)oc12`, the IC50 stood at 11.8 µM.

With `C=C(C)[C@H](OC(=O)CC(C)C)[C@H](O)c1c(OC)ccc2ccc(=O)oc12`, the IC50 is 21.3 µM. Then `OC/C=C/c1ccc(O)c(/C=C/[C@]23CCC(CO)=C[C@H]2c2cc(/C=C/CO)ccc2O[C@H]3O)c1`, with 8.6 µM; and `COc1ccc2ccc(=O)oc2c1C(=O)C(OC(=O)CC(C)C)=C(C)C`, with 37.6 µM. As to `C=C(C)[C@H](O)[C@H](OC(=O)CC(C)C)c1c(OC)ccc2ccc(=O)oc12`, the IC50 was determined as 26.4 µM. As to `C=C(C)[C@@H]1O[C@H](C(=C(C)C)c2c(OC)ccc3ccc(=O)oc23)O[C@@H]1c1c(OC)ccc2ccc(=O)oc12`, the IC50 was found to be 37.6 µM. Take `C=C(C)[C@H](O)[C@H](C[C@@](C)(O)/C=C/c1c(OC)ccc2ccc(=O)oc12)c1c(OC)ccc2ccc(=O)oc12`: the IC50 was 28.9 µM. Take `COc1ccc2ccc(=O)oc2c1/C=C\C(C)=O`: the IC50 was found to be 16.9 µM. As to `O=c1c(O)c(-c2ccc(O)c(O)c2)oc2cc(O)cc(O)c12` [QUERCETIN], the concentration for half-maximal inhibition (IC50) was 7.2 µM.
